Experiments:
ACE = target: T1, ACE (Homo sapiens, UniProt P12821); assay: Purified peptidase assay, ACE; format: biochemical; settings: recombinant purified human enzyme; for prodrugs the active form was tested
T1 construct: purchased R&D Systems (Minneapolis, MN)
Method: (§1) Purified recombinant human enzymes were purchased from R&D Systems (Minneapolis, MN). […] Each substrate was diluted to 100 μM in the assay buffer recommended for each enzyme by the supplier. […] To these, 5 μl of diluted enzyme was added, followed by 10 μl of the quenched peptide substrate. The plates were incubated at 37°C until at least 10% substrate turnover or 5 μM product had formed. Fluorescence was measured using a Tecan Safire II (Excitation 320 nm/Emission 420 nm). Each plate included a standard curve of reaction product and positive (no enzyme) and negative (dimethyl sulfoxide vehicle) controls. Dose-response data were plotted and inhibition values (IC50) determined by linear regression analysis using GraphPad Prism (GraphPad Software, La Jolla, CA).

IDE = target: T2, IDE (Homo sapiens, UniProt P14735); assay: Purified peptidase assay, IDE; format: biochemical; settings: recombinant purified human enzyme; for prodrugs the active form was tested
T2 construct: purchased R&D Systems (Minneapolis, MN)
T2 sequence (P14735 1-1019): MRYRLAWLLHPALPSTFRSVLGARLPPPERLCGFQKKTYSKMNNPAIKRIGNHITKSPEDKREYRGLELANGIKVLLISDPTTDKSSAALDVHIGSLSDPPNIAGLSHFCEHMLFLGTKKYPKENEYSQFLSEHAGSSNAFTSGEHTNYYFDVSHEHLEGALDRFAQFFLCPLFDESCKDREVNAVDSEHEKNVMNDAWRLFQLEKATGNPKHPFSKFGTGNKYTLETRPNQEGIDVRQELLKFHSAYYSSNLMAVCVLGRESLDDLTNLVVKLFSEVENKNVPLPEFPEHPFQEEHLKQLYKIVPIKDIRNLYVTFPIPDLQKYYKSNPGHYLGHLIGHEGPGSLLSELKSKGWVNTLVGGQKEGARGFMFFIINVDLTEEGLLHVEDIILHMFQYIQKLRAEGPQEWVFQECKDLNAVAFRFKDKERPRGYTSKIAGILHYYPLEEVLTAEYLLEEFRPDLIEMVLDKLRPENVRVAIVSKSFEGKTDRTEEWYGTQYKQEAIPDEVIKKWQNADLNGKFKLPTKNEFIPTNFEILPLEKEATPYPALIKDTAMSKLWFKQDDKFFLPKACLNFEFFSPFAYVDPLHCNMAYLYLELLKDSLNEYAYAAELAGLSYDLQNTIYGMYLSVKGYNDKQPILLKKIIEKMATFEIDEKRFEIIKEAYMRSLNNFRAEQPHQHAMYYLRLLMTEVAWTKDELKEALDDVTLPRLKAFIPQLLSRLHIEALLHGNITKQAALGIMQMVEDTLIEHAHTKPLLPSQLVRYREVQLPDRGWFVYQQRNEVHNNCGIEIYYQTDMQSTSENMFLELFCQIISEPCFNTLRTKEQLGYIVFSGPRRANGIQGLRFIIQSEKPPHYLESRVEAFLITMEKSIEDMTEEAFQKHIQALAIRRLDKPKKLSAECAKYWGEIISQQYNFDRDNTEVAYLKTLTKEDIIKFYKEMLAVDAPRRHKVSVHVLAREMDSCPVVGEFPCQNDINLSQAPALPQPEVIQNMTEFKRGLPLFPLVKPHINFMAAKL
Method: as §1

ECE-1 = target: T3, ECE-1 (Homo sapiens, UniProt P42892); assay: biochemical; settings: recombinant purified human enzyme; for prodrugs the active form was tested
T3 construct: purchased R&D Systems (Minneapolis, MN)
T3 sequence (P42892 1-770): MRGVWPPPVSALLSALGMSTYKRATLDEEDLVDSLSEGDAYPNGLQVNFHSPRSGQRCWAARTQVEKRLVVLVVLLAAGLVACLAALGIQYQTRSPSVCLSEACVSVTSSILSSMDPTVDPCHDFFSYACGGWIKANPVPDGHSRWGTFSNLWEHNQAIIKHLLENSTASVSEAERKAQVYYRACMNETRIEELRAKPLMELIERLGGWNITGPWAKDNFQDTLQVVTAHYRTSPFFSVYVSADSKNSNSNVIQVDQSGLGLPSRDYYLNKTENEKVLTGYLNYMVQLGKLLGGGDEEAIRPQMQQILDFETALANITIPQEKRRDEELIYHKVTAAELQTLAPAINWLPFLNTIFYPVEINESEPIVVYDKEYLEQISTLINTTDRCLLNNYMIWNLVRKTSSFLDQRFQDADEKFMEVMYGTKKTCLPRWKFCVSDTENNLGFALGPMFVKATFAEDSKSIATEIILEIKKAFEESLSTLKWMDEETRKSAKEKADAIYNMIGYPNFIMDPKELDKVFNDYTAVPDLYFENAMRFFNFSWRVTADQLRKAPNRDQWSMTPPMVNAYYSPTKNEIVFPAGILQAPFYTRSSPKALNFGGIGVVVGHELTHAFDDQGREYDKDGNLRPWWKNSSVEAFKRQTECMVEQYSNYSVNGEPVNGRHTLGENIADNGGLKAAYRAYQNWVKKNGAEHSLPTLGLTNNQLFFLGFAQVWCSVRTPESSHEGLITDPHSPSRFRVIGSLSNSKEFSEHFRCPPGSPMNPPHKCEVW
Method: as §1

[1] = test system: castor oil–induced diarrhea; assay: Castor oil–induced diarrhea model; format: in vivo, rat; settings: single oral dose 30 minutes before castor oil, fasted rats, vs vehicle (Fig. 1)
Method: Experiments were performed with 6-to-7-week-old male Wistar rats obtained from Charles River Laboratories (Wilmington, MA). All animals were housed in Saint Louis University facilities under controlled conditions of temperature, humidity, and a 12-hour light/dark cycle. They were maintained on standard rodent chow with free access to water. Animal care and all procedures were performed in accordance with the National Institutes of Health Guide for the Care and Use of Laboratory Animals and approved by the university’s institutional animal care and use committee.
Animals were weighed and individually housed in metabolic cages containing white paper underneath to collect feces. Test compounds or vehicles were administered by oral gavage (5 ml/kg), and then at indicated times, 10 ml/kg body weight of 100% castor oil was administered by oral gavage to induce diarrhea. Animals had access to food within 5 minutes. Stool weight was recorded starting 15 minutes after castor oil administration and repeated every 15 minutes up to 4 hours. […] After 4 hours, animals were euthanized with CO2, and blood and tissues were collected for analyses.

NEP = target: T4, NEP (Homo sapiens, UniProt P08473); assay: Purified peptidase assay, NEP; format: biochemical; settings: recombinant purified human enzyme; for prodrugs the active form was tested
T4 construct: purchased R&D Systems (Minneapolis, MN)
Method: as §1

T1 sequence (P12821 30-1306): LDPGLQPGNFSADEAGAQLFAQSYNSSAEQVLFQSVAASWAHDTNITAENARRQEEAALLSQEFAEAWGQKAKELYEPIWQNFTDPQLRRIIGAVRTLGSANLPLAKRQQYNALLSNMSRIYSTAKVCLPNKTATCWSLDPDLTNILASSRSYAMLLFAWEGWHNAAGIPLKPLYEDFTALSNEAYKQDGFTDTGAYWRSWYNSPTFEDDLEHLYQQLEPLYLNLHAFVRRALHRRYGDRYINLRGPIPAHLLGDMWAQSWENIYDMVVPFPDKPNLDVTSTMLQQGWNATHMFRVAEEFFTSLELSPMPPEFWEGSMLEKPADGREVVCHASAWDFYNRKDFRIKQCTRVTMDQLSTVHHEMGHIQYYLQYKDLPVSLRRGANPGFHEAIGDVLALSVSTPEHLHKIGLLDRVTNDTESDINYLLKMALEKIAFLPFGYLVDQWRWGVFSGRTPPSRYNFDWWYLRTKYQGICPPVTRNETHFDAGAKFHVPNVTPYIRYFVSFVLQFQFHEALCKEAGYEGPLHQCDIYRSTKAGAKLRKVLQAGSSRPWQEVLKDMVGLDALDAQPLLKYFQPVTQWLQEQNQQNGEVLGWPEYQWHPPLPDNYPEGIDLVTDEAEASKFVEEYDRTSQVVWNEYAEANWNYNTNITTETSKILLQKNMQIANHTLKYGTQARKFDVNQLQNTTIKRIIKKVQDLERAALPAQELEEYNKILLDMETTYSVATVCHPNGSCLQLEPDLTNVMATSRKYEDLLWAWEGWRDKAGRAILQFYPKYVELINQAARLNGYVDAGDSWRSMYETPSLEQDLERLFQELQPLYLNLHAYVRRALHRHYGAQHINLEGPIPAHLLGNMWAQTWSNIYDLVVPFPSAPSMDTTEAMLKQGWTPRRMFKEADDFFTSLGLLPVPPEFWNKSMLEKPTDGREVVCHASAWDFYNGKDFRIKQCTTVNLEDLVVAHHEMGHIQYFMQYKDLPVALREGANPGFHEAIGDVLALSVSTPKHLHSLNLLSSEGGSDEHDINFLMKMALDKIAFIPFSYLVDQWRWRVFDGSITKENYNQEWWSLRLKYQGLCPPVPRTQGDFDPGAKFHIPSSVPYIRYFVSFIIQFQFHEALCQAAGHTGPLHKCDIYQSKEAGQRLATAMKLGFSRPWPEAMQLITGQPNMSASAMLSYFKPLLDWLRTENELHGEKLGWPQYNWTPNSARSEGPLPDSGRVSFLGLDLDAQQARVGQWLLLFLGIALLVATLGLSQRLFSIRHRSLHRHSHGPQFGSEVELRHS
T4 sequence (P08473 whole entry): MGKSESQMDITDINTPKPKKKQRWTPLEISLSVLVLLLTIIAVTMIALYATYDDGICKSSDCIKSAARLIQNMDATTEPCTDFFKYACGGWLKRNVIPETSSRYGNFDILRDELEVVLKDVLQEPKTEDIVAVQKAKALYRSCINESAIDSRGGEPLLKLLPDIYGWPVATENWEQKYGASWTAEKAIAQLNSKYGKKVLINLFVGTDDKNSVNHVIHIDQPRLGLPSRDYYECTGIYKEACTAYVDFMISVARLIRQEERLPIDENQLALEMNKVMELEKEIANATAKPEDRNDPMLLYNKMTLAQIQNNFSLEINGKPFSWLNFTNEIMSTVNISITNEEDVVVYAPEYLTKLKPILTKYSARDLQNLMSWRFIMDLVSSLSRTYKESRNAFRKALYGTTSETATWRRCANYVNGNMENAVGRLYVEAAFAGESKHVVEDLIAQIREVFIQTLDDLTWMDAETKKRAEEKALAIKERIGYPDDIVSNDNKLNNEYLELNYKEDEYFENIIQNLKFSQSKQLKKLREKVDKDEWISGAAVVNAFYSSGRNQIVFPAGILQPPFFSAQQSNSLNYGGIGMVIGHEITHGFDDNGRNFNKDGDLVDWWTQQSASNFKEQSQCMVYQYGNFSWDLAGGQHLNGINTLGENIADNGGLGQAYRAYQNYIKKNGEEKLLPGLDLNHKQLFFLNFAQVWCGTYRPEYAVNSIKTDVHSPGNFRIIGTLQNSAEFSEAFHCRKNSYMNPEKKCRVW

## Cc1nc2ccc(CCCNC(=O)C3(C[C@@H](C)C(=O)O)CCCC3)cc2s1 [UK-505,749, (R)-2-methyl-3-(1-((3-(2-methylbenzo[d]thiazol-6-yl)propyl)carbamoyl)cyclopentyl)propanoic acid]
ACE
  IC50: > 100 µM
IDE
  IC50: > 100 µM
ECE-1
  IC50: 3.3 µM
[1]
  Cumulative stool output over 4 hours: significantly reduced
NEP
  IC50: 0.004 µM
